assay: passive permeability, PAMPA, ADME assay (AID 1508612); settings: pH 7.4, 30.0 min, 50.0 µM

| SMILES | Papp [×10⁻⁶ cm/s] |
| --- | --- |
| Nc1ncnc2c1c(-c1cnc3[nH]ccc3c1)nn2C1CCCC1 | > 1000 |
| Fc1cc(-c2nc(Nc3ccc(F)c(F)c3)c3ccccc3n2)ccn1 | 116 |
| CCOC(=O)c1ccc(-n2cnc3cc(C(=O)N4CCCCC4)ccc32)cc1 | > 1000 |
| Cc1ccc(S(=O)(=O)Nc2cnccc2C(=O)Nc2nc(C3CCC3)cs2)cc1 | 497 |
| CN(C(=O)CSc1nc2c(c(=O)[nH]1)CCCC2)c1ccccc1 | 143 |
| CC(=O)C1CCN(c2ncc(-c3cccc(N(C)C)c3)s2)CC1 | > 1000 |
| CC[S+](=O)([O-])Nc1ccccc1C(=O)Nc1nc(-c2ccccc2)cs1 | 512 |
| Cc1ccc(C(=O)Nc2ccc(CN3CCN(C)CC3)c(C(F)(F)F)c2)cc1C#Cc1cnc2cccnn12 | > 1000 |
| CC1CCc2cc(F)ccc2N1C(=O)CSc1nnc2c(n1)[nH]c1ccccc12 (stereo unspecified) | > 1000 |
| COC(=O)CNC(=O)c1nc(-c2ccc(Cl)nc2)c2ccccn12 | > 1000 |
| CC(C)(C)c1ccc(-c2nc(SCCCOc3ccccc3)n3[nH]c(=O)cc3n2)cc1 | 10.1 |
| CC(C)NC(=O)C1CCN(C(=O)c2cc3sccc3n2Cc2ccc(Cl)cc2)CC1 | > 1000 |
| Cc1ccc(N2CCC(CNc3nc(-c4ccccc4C(C)C)ncc3C)CC2)cn1 | > 1000 |
| Cc1cccc(N2CCN(c3nc4ccccc4c4nnc(C)n34)CC2)c1C | 887 |
| COc1ccc(-c2nc(CS(=O)CC(=O)N3CCC4(CC3)OCCO4)c(C)o2)cc1 (stereo unspecified) | 91.7 |
| Fc1ccc(-c2csc3ncnc(Sc4nnnn4C4CC4)c23)cc1 | 834 |
| c1ccc(-c2ccc(CNc3nc(-c4ccccn4)nnc3-c3ccccc3)cc2)cc1 | > 1000 |
| CC(C)c1ccccc1-c1nc2c(c(NCc3ccc(-c4cccnc4)cc3)n1)CNC2 | 478 |
| O=C1Nc2cccc(Cl)c2/C1=C\c1cc(Cl)c(O)c(Cl)c1 | 93.9 |
| COc1ccccc1N1CCN(C2CCCCC2NS(=O)(=O)c2ccccc2)CC1 (stereo unspecified) | > 1000 |
| CN(C)C(=O)c1nc(-c2ccc(Cl)nc2)c2ccccn12 | > 1000 |

| SMILES | Papp [×10⁻⁶ cm/s] |
| --- | --- |
| COc1ccc(S(=O)(=O)N2CCCCCC2)cc1NC(=O)Cc1n[nH]c(=O)c2ccccc12 | < 1 |
| Cc1cccc(-n2cnc3cc(C(=O)N4CCC(Br)CC4)ccc32)c1 | > 1000 |
| CCOC(=O)Nc1ccc(NCc2ccc(F)cc2)nc1N | 68.3 |
| CC(C)C[C@H]1C(=O)N2CCC[C@H]2[C@]2(O)O[C@](NC(=O)[C@@H]3C=C4c5cccc6[nH]c(Br)c(c56)C[C@H]4N(C)C3)(C(C)C)C(=O)N12 | 876 |
| COc1ccccc1-c1nnc2sc(-c3ccc(N(C)C)cc3)nn12 | 278 |
| CCOc1ccc(CCNC(=O)c2cc3cccnc3n2Cc2cccc(C)c2)cc1OCC | > 1000 |
| COc1ccc(C(=O)Nc2ccc3c(c2)N(C2CCCC2)C(=O)c2ccccc2S3)cc1OC | 15.7 |
| Cc1nn2c(c1-c1ccccc1-c1ccccc1)N(Cc1ccc(O)cc1)CCC2 | 1.8 |
| CC(=O)Nc1ccc(N[S+](=O)([O-])c2cccc(NC(=O)c3[nH]c(C)c(C(C)=O)c3C)c2)cc1 | 20.6 |
| Fc1cccc(F)c1Nc1nc(-c2ccncc2)nc2ccccc12 | > 1000 |
| O=C(NC1CCCc2c1[nH]c1ccc(Cl)cc21)c1ccncc1 (stereo unspecified) | 7.6 |
| O=C1Nc2ccccc2C12CC2c1cc(Cl)c(O)c(Cl)c1 (stereo unspecified) | 278 |
| COc1ccc(C(=O)N2CCCC(c3nn(-c4ccc(OC)cc4)c(=O)[nH]3)C2)cc1 (stereo unspecified) | 599 |
| NS(=O)(=O)c1ccc(Cc2c(-c3cccc(-c4ccccc4)c3)nn(-c3nc(C(=O)O)cs3)c2CC2CC2)cc1 | 3.4 |
| CCOC(=O)N1CCc2c(sc(NCc3sccc3C)c2C(=O)Nc2cc(Cl)ccc2OC)C1 | < 1 |
| COC(=O)c1ccc2nc(NC3=NC(c4[nH]ncc4Cl)C4=C(CCCC4=O)N3)oc2c1 (stereo unspecified) | 578 |
| Cc1cc(-c2nnc3n2CCCCC3)c(C)n1-c1cccc(Cl)c1 | > 1000 |
| Cc1ccc(S(=O)(=O)Nc2cc(F)ccc2C(=O)Nc2nc(-c3ccccc3)cs2)cc1 | 244 |
| COc1ccccc1Nc1cnc2ccc(-c3ccc(OC)c(OC)c3)nn12 | 397 |
| CCN(CC)S(=O)(=O)c1ccc(N2CCCC2)c(NS(=O)(=O)c2ccccc2)c1 | 396 |
